{
  "source": "patent US20150018411A1",
  "about": "“COMPOUNDS AS PPAR BETA/DELTA INHIBITORS FOR TREATING PPAR BETA/DELTA-MEDIATED DISEASES” (PHILIPPS-UNIVERSITAT MARBURG, priority 2011, published 2015)",
  "key": {"[1]": {"biological_target": "T1, GST-PPAR beta/delta LBD (Homo sapiens, UniProt Q03181)", "T1 construct": "GST-PPAR beta/delta LBD (GST=glutathione S-transferase); purchased Invitrogen, Darmstadt, Germany", "T1 sequence (Q03181 211-439 limits assumed)": "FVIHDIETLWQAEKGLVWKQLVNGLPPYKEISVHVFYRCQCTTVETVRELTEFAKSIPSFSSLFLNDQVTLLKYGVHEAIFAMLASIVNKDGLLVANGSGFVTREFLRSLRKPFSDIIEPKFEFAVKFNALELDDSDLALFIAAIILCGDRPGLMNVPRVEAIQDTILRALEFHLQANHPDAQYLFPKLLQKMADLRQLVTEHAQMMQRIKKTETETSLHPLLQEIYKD", "experiment": "Inhibition of compound 1-induced binding of corepressor peptide SMRT-ID2, TR-FRET", "assay_type": "biochemical", "details": "1 μM test substance, increasing concentrations of inverse agonist compound 1", "method": "(§1) FIG. 3: Inhibition of agonist-induced co-activator peptide binding (A) and inverse agonist compound 1-induced corepressor peptide binding (B) by the substance of this invention compound 5. • The recruitment of the co-activator or corepressor peptide, respectively, is determined in a TR-FRET assay. As co-activator peptide, C33 is utilized, as corepressor peptide SMRT-ID2. The experiment is performed with a constant concentration of 1 μM of the substance of this invention compound 5 and increasing concentrations of the agonist L165041 (A) or the inverse agonist compound 1 (B), respectively.\n(§2) C) The inhibition of the recruitment of co-activator peptide C33 known to the expert in this field mediated by PPAR beta/delta agonist L165,041 or the inhibition of the inverse agonist inventive compound 1-mediated binding of the corepressor peptide SMRT-ID2 to GST-PPAR beta/delta LBD by the substance of this invention compound 5 (1 μM) was also determined by TR-FRET measurements. Both is shown in FIGS. 3 A and B in dependency of the concentration of the agonist (A) and the inverse agonist (B), respectively."}, "[2]": {"biological_target": "T1, GST-PPAR beta/delta LBD", "experiment": "Inhibition of agonist L165041-induced recruitment of co-activator peptide C33, TR-FRET", "assay_type": "biochemical", "details": "1 μM test substance, increasing concentrations of agonist L165041", "method": "as §1, §2"}},
  "data": [
    {"smiles": "COC(=O)c1sccc1S(=O)(=O)Nc1ccc(NC(C)(C)C)cc1OC", "note": "[compound 5, methyl 3-(N-(4-(tert-butylamino)-2-methoxyphenyl)sulfamoyl)thiophene-2-carboxylate]", "values": [
      {"measurement": "inhibition of compound 1-mediated interaction of LBD with corepressor peptide SMRT-ID2", "setting": "[1]", "value": "prevents"},
      {"measurement": "inhibition of agonist-induced recruitment of co-activator peptide C33", "setting": "[2]", "value": "prevents"}
    ]}
  ]
}
